Assay results published in patent publication US11571433B2, “Methods for treating memory impairment and cognitive dysfunction” (CARMEL HAIFA […] CORPORATION LTD., priority 2018, dated 2023).

Assays:
a1-NaKA = biological target: T1, a1-NaKA (Mus musculus, UniProt Q8VDN2); assay: Inhibition of a1-NaKA; details: 0.5 μM MBG
T1 construct: Hippocampal slices from WT and AS mice were stimulated; from tissue; host or cells: mouse hippocampal slices (WT and Angelman syndrome model mice)

AS model mice [1] = assay: Contextual fear conditioning; assay type: in vivo, mouse; details: IP infusion 10 μg/kg/day by osmotic pump, started 2 weeks before conditioning, tested 24 hours after training
Experimental: (§1) Drug handling: Marinobufagenin was kept in stock solution (1 mg/10 ml) in 0.5% DMSO and was freshly diluted to the required concentration 0.042 mg/mL by saline prior to the experiment. At this stock concentration a volume of 100 μL for 16 days in a rate of 0.25 μL/hour correlated to approximately 10 μg/kg/day for a mouse of 25 grams. The exact concentration was calculated for each mouse according to its body weight. As a vehicle 1:200 stock solution of DMSO in water (the maximal concentration of DMSO matched to the maximal dose of MBG, i.e. 10 μg/kg/day) was used. For delivery via osmotic pumps only mice that weigh more than 20 g were used. For LTP studies, marinobufagenin was kept at 100 mM stock solution in DMSO and was freshly dissolved in 1:100,000 carboxygenated artificial cerebrospinal fluid to the final concentration of 1 μM. For chronic injections Alzet osmotic pumps filled with marinobufagenin were used as described (Elkareh et al., 2007; Fedorova et al., 2009; Kennedy et al., 2006; Liu et al., 2012; Yoshika et al., 2007).
Contextual fear conditioning: Mice were placed into a standard conditioning chamber and given a two-sec scrambled foot shock (0.75 mA) twice, two minutes and four minutes after session onset. […] The occurrence of freezing was measured every 10 seconds throughout training. […] The occurrence of freezing was measured every 10 sec throughout testing. […]

[2] = tested on: Hippocampal slices from AS mice; assay: High frequency stimulation LTP (fEPSP slope) in area CA1 of hippocampal slices; assay type: cell-based, mouse; details: for LTP deficit after high frequency stimulation: AS mice hippocampal slices, MBG 0.5 μM 20 min before, during and 20 min after tetanization, vs vehicle
Experimental: Electrophysiology: Hippocampal slices were prepared from wild-type and AS model mice as previously described (Kaphzan et al., 2012; Kaphzan et al., 2013). LTP was induced in area CA1 with high frequency stimulation (HFS) by delivering two 100 Hz trains of HFS with an intertrain interval of 20 sec. The initial slope of the field excitatory postsynaptic potential (fEPSP) for each experiment was expressed as the ratio to the average baseline response prior to delivery of HFS.
as §1
Hippocampal slices from WT and AS mice were stimulated with a single train of high frequency stimulation (1 sec 100 Hz-indicated by an arrow). Some of the AS slices were treated with either vehicle or MBG 0.5 μM 20 min before, during and 20 min after tetanization. WT vehicle: mice n=3, slices n=6; AS vehicle: mice n=2, slices n=4; AS MBG: mice n=2, slices n=4. P<0.05 for interaction of time and treatment in 2-way RM-ANOVA. Sample traces 1-baseline, 2-20 min after HFS.

AS model mice [3] = assay: Morris water maze; assay type: in vivo, mouse; details: chronic MBG infusion
Experimental: as §1
Morris water maze: MWM experiments were performed as previously described (Kaphzan et al., 2013). […] The animals' trajectories, escape latencies, number of previous platform position crossing, time spent in each quadrant, and swim speed were recorded with a computerized video-tracking system (Noldus EthoVision).

CA1 pyramidal cells = assay: Whole cell recordings of resting membrane potential of CA1 pyramidal cells in hippocampal slices; assay type: cell-based; details: MBG 10 μM, 10 min incubation; AS mouse vs WT littermate; P=0.07
Experimental: The effect of a1-NaKA inhibition with MBG 10 μM on the resting membrane potential was tested (FIG. 2). Hippocampal slices were incubated for 10 min with MBG 10 μM. Whole cell recordings of CA1 pyramidal cells show a larger effect on the resting membrane potential of AS mouse compared to a WT littermate. WT 1 mouse, cells n=4. AS: 1 mouse cells n=5. P=0.07 for the interaction in 2 way RM-ANOVA.

## C[C@]12CC[C@H](O)C[C@@]1(O)CC[C@@H]1[C@@H]2CC[C@]2(C)[C@@H](c3ccc(=O)oc3)C[C@H]3O[C@]132 [MBG, 3-beta,5-dihydroxy-14,15-beta-epoxy-5-beta-bufa-20,22-dienolide]
a1-NaKA
  Inhibition of a1-NaKA: partial and mild
AS model mice [1]
  contextual fear memory: corrects impaired contextual fear memory
[2]; AS hippocampal slices incubated with MBG 1 μM
  HFS-LTP impairment: rescue of the impaired LTP phenotype
[2]
  LTP deficit after high frequency stimulation: induced a recovery of LTP deficit
[2]; listed as marinobufagenin
  LTP deficit after high frequency stimulation: correction of long-term potentiation defects
[2]; hippocampal slices incubated with MBG 1 μM
  baseline synaptic transmission: no effect on baseline synaptic transmission
[2]; hippocampal slices, MBG 0.5 μM
  baseline synaptic transmission: did not affect baseline synaptic transmission
AS model mice [3]
  visuospatial memory in the Morris water maze: impairment is corrected
CA1 pyramidal cells
  effect on resting membrane potential: larger effect in AS mice than in wild-type littermates
